Test results reported in article PMC5897774, “Mitotic spindle association of TACC3 requires Aurora‐A‐dependent stabilization of a cryptic α‐helix” (The EMBO Journal, 2018).
Changes are numbered by the printed parent chain. pKd: −log10 of the molar value. Like-named read-outs stand apart in the source and are kept apart here. Residues, ends and D or L forms follow the SMILES beside them. No end group written: not given here.

Assays:
CHC 1–574 = target: T1, CHC 1–574 (Homo sapiens, UniProt Q00610); assay: FP binding assay, CHC 1–574; settings: 50 nM FAM peptide, pH 7.5, 25°C, mutant vs WT phospho-TACC3^CID
T1 construct: GST (cleaved yes); made in house
Procedure: For CHC‐TACC3 FP assays, CHC proteins were serially diluted in FP buffer (20 mM HEPES–NaOH pH 7.5, 200 mM NaCl, 5 mM DTT). FAM‐labelled TACC3 peptide was added to a final concentration of 50 nM and incubated for 30 min at room temperature to allow binding to reach equilibrium. Fluorescence polarization measurements were made using a Victor X5 plate reader (Perkin Elmer) at 25°C with excitation at 490 nm and emission at 535 nm. Data analysis was performed as described above.

[1] = tested on: Aurora‐A KD (substrate: Aurora‐A D274N); assay: Substrate phosphorylation of kinase‐dead Aurora‐A D274N by Aurora‐A KD (Western blot αphospho‐T288); assay type: biochemical, human; settings: Aurora‐A D274N as substrate, 1 h, room temperature
Excerpt: (§1) Figure 2 TACC3 523–534 forms a docking interaction on the N‐lobe of Aurora‐A • Magnified view of the site 1 interaction. • Schematic showing the key features of the TACC3/Aurora‐A interface. • FP assays of binding between site 1 of TACC3 and Aurora‐A. The sequence of TACC3 present in the complex crystal structure is shown (top) with the residues of the site 1 FP peptide coloured orange and mutated residues identified by coloured circles corresponding to the curves shown in the FP assay (below). Data represent mean of three experiments ± SD. […] Data represent mean of three experiments ± SD. […] Reactions were analysed by SDS–PAGE (above) and Western blotting with an αphospho‐T288 Aurora‐A antibody (below). […] They are listed as printed.
(§2) Autophosphorylation assays were performed as for radioactive ^32P‐ATP reactions using Aurora‐A 122–403 co‐expressed with lambda phosphatase for 1 h at room temperature with His‐Aurora‐A D274N as a substrate in replace of MBP. Reactions were resolved by SDS–PAGE and subject to Western blotting using an α‐phospho‐T288 Aurora‐A antibody (CST 2914, 1:2,000) as per the manufacturer's recommendation.

[2] = tested on: unphosphorylated Aurora‐A KD; assay: Autophosphorylation assay of unphosphorylated Aurora‐A KD (Western blot αphospho‐T288); assay type: biochemical, human; settings: unphosphorylated Aurora‐A 122–403, 1 h, room temperature
Excerpt: as §1, §2

Aurora‐A [3] = target: T2, Aurora‐A (Homo sapiens, UniProt O14965, C290A/C393A); design: method as in Burgess et al, 2015; settings: ref Burgess et al, 2015, cited from earlier work
T2 construct: pET30TEV Aurora‐A 122–403 C290A, C393A; made in house
T2 sequence (O14965 122-403 C290A/C393A): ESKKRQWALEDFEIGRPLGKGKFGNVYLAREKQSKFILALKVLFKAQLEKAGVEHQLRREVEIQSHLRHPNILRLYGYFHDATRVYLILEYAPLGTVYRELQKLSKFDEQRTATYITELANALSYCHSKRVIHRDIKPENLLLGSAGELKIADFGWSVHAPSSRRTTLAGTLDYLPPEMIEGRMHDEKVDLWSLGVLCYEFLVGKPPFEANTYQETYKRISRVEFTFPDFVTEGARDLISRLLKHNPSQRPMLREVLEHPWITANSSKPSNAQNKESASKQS

Aurora‐A [4] = target: T2, Aurora‐A; assay: Radioactive 32P‐ATP kinase assay, MBP substrate; assay type: biochemical; settings: 0.625 μM phosphorylated Aurora‐A, 5 μM TACC3^N‐ACID, 0.25 mg/ml MBP, 10 min, scintillation counting, duplicate
Procedure: (§3) Figure EV2 Biochemical and structural analysis of the Aurora‐A/TACC3 complex • FP assay between FAM‐TACC3 519–570 and Aurora‐A. Reactions were performed in triplicate. Error bars represent standard deviation. […] Error bars represent standard deviation. […] This peptide was based on the location of a sulphate ion, originating from the crystallization solution, at the interface of the Aurora‐A/TACC3 interface in the crystal structure, close to TACC3 T534. […] Myelin basic protein (MBP) was used as a generic kinase substrate. Incorporation of radioisotope was measured by scintillation counting. Reactions were performed in duplicate. Error bars represent standard error. Assays were compared to the WT TACC3^N‐ACIDH6c reaction by one‐way ANOVA with Dunnett's post hoc test. […], **P < 0.01 and ****P < 0.0001. • Multiple sequence alignment of TACC3 (above) and Aurora‐A (below) orthologs spanning the interaction binding interface. Key binding residues are boxed in red. The TACC3 phosphorylation sites, S552 and S558, are boxed in blue. The TACC3 LL motif required for binding to CHC is boxed in green. The TACC3 α‐helix produced on binding to CHC is identified by a black line. TEXT PRINTED IN THE PICTURE: (A) TACC3 519-570: 3.0 ± 0.2 μM | (B) WT: 20 ± 1 μM | (B) R526A: 49 ± 2 μM | (B) phospho-T534: 14 ± 1 μM
Radioactive ^32P‐ATP kinase assays were performed as described previously (Burgess et al, 2015). In brief, 0.625 μM Aurora‐A^M3KD WT or selected mutant was incubated with 0.25 mg/ml MBP alone and in the presence of 5 μM TACC3^N‐ACID WT or mutant for 10 min. Reactions were terminated by the addition of 2% (v/v) orthophosphoric acid. Samples were spotted onto P81 Whatman paper, washed extensively with 0.2% (v/v) orthophosphoric acid and incorporation of radioisotope measured by scintillation counting.

Aurora‐A R151A = target: T3, Aurora‐A R151A (Homo sapiens, UniProt O14965, C290A/C393A/R151A); assay: Radioactive 32P‐ATP kinase assay, MBP substrate, Aurora‐A R151A; assay type: biochemical; settings: 0.625 μM Aurora‐A R151A, 5 μM TACC3^N‐ACID, 0.25 mg/ml MBP, 10 min, scintillation counting, duplicate
T3 construct: pET30TEV Aurora‐A 122–403 C290A, C393A were produced in a similar manner; made in house
T3 sequence (O14965 122-403 R151A/C290A/C393A): T2 sequence (O14965 122-403 C290A/C393A) with R30A
Procedure: as §3, with “The TACC3 α‐helix produced on binding to CHC is identified by a black line. TEXT PRINTED IN THE PICTURE: (A) TACC3 519-570: 3.0 ± 0.2 μM | (B) WT: 20 ± 1 μM | (B) R526A: 49 ± 2 μM | (B) phospho-T534: 14 ± 1 μM” left out
Radioactive ^32P‐ATP kinase assays were performed as described previously (Burgess et al, 2015). […] Samples were spotted onto P81 Whatman paper, washed extensively with 0.2% (v/v) orthophosphoric acid and incorporation of radioisotope measured by scintillation counting.

Aurora‐A [5] = settings: whether T288 is phosphorylated or not, ref Bayliss et al, 2003, Eyers et al, Dodson & Bayliss, 2012; cited from earlier work
Excerpt: The activity of Aurora‐A is controlled through phosphorylation of its activation loop on T288 (Bayliss et al, 2003; Eyers et al, 2003). Like many of its other binding partners, such as TPX2, I‐2, HEF1, and N‐Myc, TACC3 is an Aurora‐A activator (Nikonova et al, 2013; Richards et al, 2016). However, only in the case of TPX2 has the mechanism of activation, and how this synergizes with phosphorylation of T288, been resolved (Bayliss et al, 2003; Eyers et al, 2003; Dodson & Bayliss, 2012).

T1 sequence (Q00610 1-574): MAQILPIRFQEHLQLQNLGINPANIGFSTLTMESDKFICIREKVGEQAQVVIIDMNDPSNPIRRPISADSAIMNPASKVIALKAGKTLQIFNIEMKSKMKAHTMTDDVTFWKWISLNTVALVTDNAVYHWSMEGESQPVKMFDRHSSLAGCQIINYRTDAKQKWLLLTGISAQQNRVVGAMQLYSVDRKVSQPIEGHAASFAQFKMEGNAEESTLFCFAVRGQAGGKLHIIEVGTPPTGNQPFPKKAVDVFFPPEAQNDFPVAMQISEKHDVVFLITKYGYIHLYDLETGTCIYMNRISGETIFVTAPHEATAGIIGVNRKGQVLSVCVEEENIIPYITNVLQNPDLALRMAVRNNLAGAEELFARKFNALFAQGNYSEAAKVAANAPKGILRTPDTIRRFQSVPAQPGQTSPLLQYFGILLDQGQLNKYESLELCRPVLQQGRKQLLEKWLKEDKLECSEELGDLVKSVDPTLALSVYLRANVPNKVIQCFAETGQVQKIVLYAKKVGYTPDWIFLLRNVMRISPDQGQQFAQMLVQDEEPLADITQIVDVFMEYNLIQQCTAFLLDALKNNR

CC(C)C[C@H](NC(=O)[C@H](C)NC(=O)[C@H](CO)NC(=O)[C@H](CCC(=O)O)NC(=O)[C@H](CCCCN)NC(=O)[C@H](Cc1ccccc1)NC(=O)c1ccc2c(c1)C(=O)OC21c2ccc(O)cc2Oc2cc(O)ccc21)C(=O)N[C@@H](C)C(=O)N[C@@H](C)C(=O)N[C@@H](CCC(N)=O)C(=O)N[C@@H](COP(=O)(O)O)C(=O)N[C@@H](CC(C)C)C(=O)N[C@@H](Cc1ccc(O)cc1)C(=O)N[C@@H](CC(C)C)C(=O)N[C@@H](CCCCN)C(=O)N[C@@H](Cc1ccccc1)C(=O)N[C@@H](CC(=O)O)C(=O)N1CCC[C@H]1C(=O)N[C@@H](CC(C)C)C(=O)N[C@@H](CC(C)C)C(=O)N[C@@H](CCCNC(=N)N)C(=O)N[C@@H](CC(=O)O)C(=O)N[C@@H](CO)C(=O)O [R555A, K556A] (HELM PEPTIDE1{[O=C1OC2(c3ccc(O)cc3Oc3cc(O)ccc32)c2ccc(C(=O)[*:2])cc21].F.K.E.S.A.L.A.A.Q.[O=C([C@H](COP(=O)(O)O)N[*:1])[*:2]].L.Y.L.K.F.D.P.L.L.R.D.S}$$$$V2.0; N-terminus and C-terminus assumed)
factor of reduction of affinity for CHC 1–574 (CHC 1–574): 4–5 factor

TACC3^N‐ACID: N-terminal fragment of the Aurora-A and CHC interaction domain of TACC3, aa519–563 (ELKEESFRDPAEVLGTGAEVDYLEQFGTSSFKESALRKQSLYLKF; not fully specified)
substrate phosphorylation on T288 (Aurora‐A D274N) [1]: stimulated | Aurora‐A autophosphorylation on T288 [2]: stimulated | pKd (Aurora‐A [3]; microscale thermophoresis and NMR, read-out: K d measured by MST and NMR): 5.10 to 5.22 | pKd (Aurora‐A [3]; previous data, effect of F525A mutation, read-out: K d of the interaction): 5.24 | stimulation of Aurora‐A activity (Aurora‐A [4]): eightfold | stimulation of Aurora‐A R151A activity by TACC3 (Aurora‐A R151A): reduced stimulation

TPX2 1–43: amino acids 1–43 of TPX2 (MSQVKSSYSYDAPSDFINFSSLDDEGDTQNIDSWFEEKANLEN; UniProt Q9ULW0 1-43, looked up, fragment)
stimulation of Aurora‐A activity (Aurora‐A [5]): stimulate Aurora‐A activity
